Experimental data: patent publication US20260103471A1, “CYCLIC UREA THIAZOLYL COMPOUNDS FOR TREATMENT OF HSV” (Assembly Biosciences, Inc., priority 2022, published 2026)

tested on: HSV-2 G strain; assay: HSV-2 Antiviral Assay (Vero cells, cell viability); type: cell-based; details: Human alphaherpesvirus 2, Vero, 120 h, Vero cells, 160 TCID50 HSV-2 G strain, 5 days, cell viability
How it was run: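 Antiviral readout is survival of infected Vero cells: after 5 days at 37 °C with 160 TCID50 HSV-2 G strain plus serially diluted compound (8 points, 3-fold, 0.5% DMSO), WST-8 was added for 3 h and absorbance measured at 460/620 nm. Cells seeded at 1.0×10^4 per well.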

Compound | EC50 [nM]
Cc1nc(N2CC(C(N)=O)CN(c3ccc(-c4cc(F)ccc4F)cc3)C2=O)sc1S(N)(=O)=O (stereo not shown) [Compound 381] | 100 to 1000
COc1c(F)cc(F)cc1-c1ccc(N2C[C@H](C(C)(C)O)CN(c3nc(C)c(S(N)(=O)=O)s3)C2=O)cc1 (single isomer, unassigned) [Compound 347] | 100 to 1000
COc1ccc(-c2ccc(N3CCCN(c4nc(C)c(S(N)(=O)=O)s4)C3=O)cc2)c2ccn(C)c12 [Compound 296] | 100 to 1000
CN=[S@](C)(=O)c1sc(N2CCCN(c3ccc(-c4ccccc4F)cc3)C2=O)nc1C (single isomer, unassigned) [Compound 146] | 100 to 1000
Cc1nc(N2CCCN(c3ccc(-c4ccc(F)c(F)c4)cc3)C2=O)sc1S(N)(=O)=O [Compound 190] | 100 to 1000
Cc1nc(N2CCCN(c3ccc(-c4cc(-c5cncs5)ccc4F)cc3)C2=O)sc1S(N)(=O)=O [Compound 230] | 100 to 1000
Cc1nc(N2CCCN(c3ccc(-c4cc(F)ccc4F)cc3)C2=O)sc1S(=O)(=O)N1CCC(N)C1 (stereo not shown) [Compound 397] | 100 to 1000
Cc1nc(N2CCCN(c3ccc(-c4ccnc5ncsc45)cc3)C2=O)sc1S(N)(=O)=O [Compound 272] | 1000 to 5000
Cc1nc(N2CCCN(c3ccc(-c4ncccc4C(F)(F)F)cc3)C2=O)sc1S(N)(=O)=O [Compound 232] | 100 to 1000
Cc1nc(N2CCCN(c3ccc(-c4cc(C(C)(F)F)cs4)cc3)C2=O)sc1S(N)(=O)=O [Compound 241] | 1000 to 5000
Cc1nc(N2CCCN(c3ccc(-c4cc(F)ccc4-c4cnn(C)c4)cc3)C2=O)sc1S(N)(=O)=O [Compound 207] | 100 to 1000
Cc1nc(N2CCCN(c3ccc(-c4cncc5nn(C)cc45)cc3)C2=O)sc1S(N)(=O)=O [Compound 271] | 1000 to 5000
Cc1nc(N2CCCN(c3ccc(-c4cccc(S(C)(=O)=O)c4)cc3)C2=O)sc1S(N)(=O)=O [Compound 201] | 1000 to 5000
Cc1nc(N2CCCN(c3ccc(-c4cc(C(C)(C)C)ccc4F)cc3)C2=O)sc1S(N)(=O)=O [Compound 204] | 1000 to 5000
Cc1nc(N2CCCN(c3ccc(-c4nccn5cncc45)cc3)C2=O)sc1S(N)(=O)=O [Compound 262] | 1000 to 5000
Cc1nc(N2CCCN(c3ccc(-c4ccc(F)cc4F)cc3)C2=O)sc1S(N)(=O)=O [Compound 187] | 100 to 1000
Cc1nc(N2CCCN(c3ccc(-c4cccc5c4C(F)(F)CCO5)cc3)C2=O)sc1S(N)(=O)=O [Compound 266] | 100 to 1000
Cc1nc(N2CCCN(c3ccc(-c4cc(F)ccc4F)c4scnc34)C2=O)sc1S(N)(=O)=O [Compound 311] | 100 to 1000
Cc1nc(N2CCCN(c3ccc(-c4cc(Cl)c(F)cn4)cc3)C2=O)sc1S(N)(=O)=O [Compound 38] | 1000 to 5000
Cc1nc(N2CCCN(c3ccc(-c4cc(C5(C#N)CC5)ccc4F)cc3)C2=O)sc1S(N)(=O)=O [Compound 208] | < 100
COC(=O)C1CN(c2ccc(-c3cc(F)ccc3F)cc2)C(=O)N(c2nc(C)c(S(N)(=O)=O)s2)C1 (stereo not shown) [Compound 384] | < 100
Cc1nc(N2CC(C(C)(C)O)CN(c3ccc(-c4snc5ccccc45)cc3)C2=O)sc1S(N)(=O)=O (stereo not shown) [Compound 348] | 100 to 1000
Cc1nc(N2CCCN(c3ccc(-c4cc(C(F)(F)F)cc5c4c(CO)cn5C)cc3)C2=O)sc1S(N)(=O)=O [Compound 292] | 1000 to 5000
Cc1nc(N2CCCN(c3ccc(-c4ccccc4F)cc3)C2=O)sc1[S@@](C)(=N)=O (single isomer, unassigned) [Compound 144] | 100 to 1000
Cc1nc(N2C[C@H](C)CN(c3ccc(-c4cc(F)ccc4F)cc3)C2=O)sc1S(N)(=O)=O (single isomer, unassigned) [Compound 319] | < 100
Cc1nc(N2CC[C@H](C)N(c3ccc(-c4cc(F)ccc4F)cc3)C2=O)sc1S(N)(=O)=O (single isomer, unassigned) [Compound 334] | < 100

More lines, now with the values ahead:

EC50 [nM] | Compound
< 100 | Cc1nc2c(-c3ccc(N4CCCN(c5nc(C)c(S(N)(=O)=O)s5)C4=O)cc3)cccc2s1 [Compound 72]
< 100 | Cc1nc(N2CC3(COC3)CN(c3ccc(-c4cc(F)ccc4F)cc3)C2=O)sc1S(C)(=N)=O (stereo not shown) [Compound 431]
< 100 | CSc1ccccc1-c1ccc(N2CCCN(c3nc(C)c(S(N)(=O)=O)s3)C2=O)cc1 [Compound 11]
< 100 | Cc1nc(N2CCC(C)N(c3ccc(-c4cc(F)ccc4F)cc3)C2=O)sc1S(N)(=O)=O (stereo not shown) [Compound 332]
< 100 | Cc1nc(N2CCCN(c3ccc(-c4cc(F)ccc4F)cc3)C2=O)sc1S(=O)(=O)N1CC2(COC2)C1 [Compound 403]
< 100 | Cc1nc(N2CCCN(c3ccc(-c4ccccc4F)cc3)C2=O)sc1[S@](C)(=N)=O (single isomer, unassigned) [Compound 143]
< 100 | Cc1nc(N2C[C@@H](C(C)(C)O)CN(c3ccc(-c4cc(F)ccc4F)cc3)C2=O)sc1S(N)(=O)=O (single isomer, unassigned) [Compound 344]
< 100 | Cc1nc(N2CCCN(c3ccc(-c4cccc5c4cc(C)n5C)cc3)C2=O)sc1S(N)(=O)=O [Compound 250]
< 100 | Cc1nc(N2C[C@@H](C)CN(c3ccc(-c4cc(F)ccc4F)cc3)C2=O)sc1S(N)(=O)=O (single isomer, unassigned) [Compound 320]
< 100 | Cc1nc(N2CCCN(c3ccc(-c4cc(F)cc(/C=C/C#N)c4)cc3)C2=O)sc1S(N)(=O)=O [Compound 192]
< 100 | Cc1nc(N2CCCN(c3ccc(-c4cc(F)cc(C(F)F)c4)cc3)C2=O)sc1S(N)(=O)=O [Compound 222]
< 100 | Cc1csc(-c2ccc(N3CC4(CC4)CN(c4nc(C)c(S(N)(=O)=O)s4)C3=O)cc2)n1 [Compound 114]
< 100 | Cc1nc(N2CC(C(F)F)CN(c3ccc(-c4cc(F)ccc4F)cc3)C2=O)sc1S(N)(=O)=O (stereo not shown) [Compound 349]
< 100 | Cc1nc(N2C(=O)N(c3ccc(-c4cc(F)ccc4F)cc3)CC[C@H]2C)sc1S(N)(=O)=O (single isomer, unassigned) [Compound 108]
< 100 | NS(=O)(=O)c1sc(N2CCCN(c3ccc(-c4cc(F)ccc4F)cc3)C2=O)nc1CO [Compound 440, 2-(3-(2′,5′-difluoro-[1,1′-biphenyl]-4-yl)-2-oxotetrahydropyrimidin-1(2H)-yl)-4-(hydroxymethyl)thiazole-5-sulfonamide]
< 100 | CONS(=O)(=O)c1sc(N2CCCN(c3ccc(-c4cc(F)ccc4F)cc3)C2=O)nc1C [Compound 386]
< 100 | Cc1nc(N2CCCN(c3ccc(-c4cccc5cnsc45)cc3)C2=O)sc1S(N)(=O)=O [Compound 258]
< 100 | Cc1nc(N2CCCN(c3ccc(-c4cccc(-c5cscn5)c4)cc3)C2=O)sc1S(N)(=O)=O [Compound 229]
< 100 | Cc1nc(N2CCCCN(c3ccc(-c4cc(F)cc5nsnc45)cc3)C2=O)sc1S(N)(=O)=O [Compound 313]

EC50 [nM] | Compound
< 100 | COc1cc(-c2ccc(N3CCCN(c4nc(C)c(S(N)(=O)=O)s4)C3=O)cc2)c2ccn(C)c2c1 [Compound 301]
< 100 | COc1ccc(F)cc1-c1ccc(N2CCCN(c3nc(C)c(S(N)(=O)=O)s3)C2=O)cc1 [Compound 203]
< 100 | Cc1nc(N2CCCN(c3ccc(-c4cc(F)ccc4F)cc3)C2=O)sc1S(=O)(=O)NC[C@H](C)CO [Compound 396]
< 100 | Cc1cccc(-c2ccc(N3CCCN(c4nc(C)c(S(N)(=O)=O)s4)C3=O)cc2)n1 [Compound 184]
< 100 | Cc1nc(N2C(=O)N(c3ccc(-c4cc(F)ccc4F)cc3)CCC2C)sc1S(N)(=O)=O (stereo not shown) [Compound 107, 2-(3-(2′,5′-Difluoro-[1,1′-biphenyl]-4-yl)-6-methyl-2-oxotetrahydropyrimidin-1(2H)-yl)-4-methylthiazole-5-sulfonamide]
< 100 | Cc1nc(N2CCCCN(c3ccc(-c4cc(F)ccc4F)cc3)C2=O)sc1S(C)(=N)=O (stereo not shown) [Compound 154]
< 100 | Cc1nc(N2CCCN(c3ccc(-c4cc(F)ccc4F)cc3)C2=O)sc1S(=O)(=O)NCC(F)(F)CO [Compound 392]
< 100 | Cc1nc(N2CCCN(c3ccc(-c4cc(C(F)(F)F)cc5c4ccn5C)cc3)C2=O)sc1S(N)(=O)=O [Compound 246]
< 100 | Cc1nc(N2CCCN(c3ccc(-c4ncccc4F)cc3)C2=O)sc1S(=O)(=O)NC1CC1 [Compound 409]
< 100 | Cc1nc(N2CCCN(c3ccc(-c4cccc5c(C)csc45)cc3)C2=O)sc1S(N)(=O)=O [Compound 275]
< 100 | Cc1nc(N2CCCN(c3ccc(-c4cc(F)cc5nsnc45)cc3)C2=O)sc1S(=O)(=O)NCCCO [Compound 418]
< 100 | Cc1nc(N2C[C@H](F)CN(c3ccc(-c4cc(F)ccc4F)cc3)C2=O)sc1S(N)(=O)=O (single isomer, unassigned) [Compound 364]
< 100 | Cc1nc(N2CCCN(c3ccc(-c4cc(C(F)F)ccc4F)cc3)C2=O)sc1S(N)(=O)=O [Compound 206]
< 100 | Cc1nc(N2CCCN(c3ccc(-c4cccc(-c5cncs5)c4)cc3)C2=O)sc1S(N)(=O)=O [Compound 31]
< 100 | COc1ccc(F)cc1-c1ccc(N2C[C@H](C)CN(c3nc(C)c(S(N)(=O)=O)s3)C2=O)cc1 (single isomer, unassigned) [Compound 331]
< 100 | Cc1nc(N2CCCN(c3ccc(-c4cccc5c4OCCO5)cc3)C2=O)sc1S(N)(=O)=O [Compound 249]
< 100 | Cc1nc(N2CCCN(c3ccc(-c4cc(F)cc5c4c(C)cn5C)cc3)C2=O)sc1S(N)(=O)=O [Compound 291]
< 100 | Cc1nc(N2CC(C#N)CN(c3ccc(-c4cc(F)ccc4F)cc3)C2=O)sc1S(N)(=O)=O (stereo not shown) [Compound 360, 2-(5-cyano-3-(2′,5′-difluoro-[1,1′-biphenyl]-4-yl)-2-oxotetrahydropyrimidin-1(2H)-yl)-4-methylthiazole-5-sulfonamide]
< 100 | Cc1nc(N2CCCN(c3ccc(-c4cc(F)ccc4F)cc3)C2=O)sc1S(=O)(=O)NCCC(C)(C)O [Compound 393]
